Patent US12371675B2, “Process and microorganism for synthesis of adipic acid from carboxylic acids” (THE GOVERNING COUNCIL OF THE UNIVERSITY OF TORONTO, priority 2015, dated 2025)
Each block holds one compound with its values, some of them ahead of it.

Tests used:
[1] = target: Bacillus coagulans 36D1 2-enoate reductase EREDBC, SEQ ID NO: 1 (Heyndrickxia coagulans, UniProt A0AAN0T7I1); assay: Kinetics of purified EREDBC, NADH oxidation at 340 nm, anaerobic; assay type: biochemical; conditions: for saturation by substrate: anaerobic, aqueous buffer
Chain of Bacillus coagulans 36D1 2-enoate reductase EREDBC, SEQ ID NO: 1 (A0AAN0T7I1 entry or part of it): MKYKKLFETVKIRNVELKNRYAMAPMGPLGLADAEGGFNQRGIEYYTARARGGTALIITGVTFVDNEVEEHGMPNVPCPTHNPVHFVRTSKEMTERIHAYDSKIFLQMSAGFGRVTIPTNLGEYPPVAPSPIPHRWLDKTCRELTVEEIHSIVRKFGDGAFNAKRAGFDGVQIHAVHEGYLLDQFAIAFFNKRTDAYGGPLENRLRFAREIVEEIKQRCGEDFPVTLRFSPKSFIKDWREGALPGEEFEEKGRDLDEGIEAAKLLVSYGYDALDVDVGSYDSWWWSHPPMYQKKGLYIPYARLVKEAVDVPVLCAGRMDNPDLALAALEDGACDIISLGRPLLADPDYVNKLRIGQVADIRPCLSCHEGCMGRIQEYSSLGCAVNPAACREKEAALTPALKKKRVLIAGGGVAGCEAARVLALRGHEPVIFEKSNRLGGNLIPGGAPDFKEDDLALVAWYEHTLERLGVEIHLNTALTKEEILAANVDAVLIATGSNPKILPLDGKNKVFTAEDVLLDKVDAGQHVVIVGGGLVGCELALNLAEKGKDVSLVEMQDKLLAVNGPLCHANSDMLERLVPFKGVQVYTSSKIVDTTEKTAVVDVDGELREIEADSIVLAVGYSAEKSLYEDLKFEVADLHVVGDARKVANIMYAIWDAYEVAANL
Experimental: (§1) The C═C reducing activity of EREDs was examined. Enzyme activity of purified EREDs was measured spectrophotometrically in 96-well plates by following incubation for 3-5 min at 30° C. in the anaerobic chamber as described in M. Buhler, H. Simon, Hoppe-Seyler's Zeitschrift fur Physiologische Chemie 1982, 363, 609-625. Buffers and reagents were degassed and sparged with Ar. Reaction mixture contained potassium phosphate (100 mM and pH 7.0), NADH (0.5 mM), indicated substrates, and proteins (0.1-50 μg) in a final volume of 200 μL. Enzyme reactions were monitored by following the decrease in absorbance at 340 nm (ε340 nm=6,220/M·cm) due to oxidation of NADH to NAD+.
(§2) For in vitro biochemical characterization, enzyme activities of purified EREDs were measured with 2-hexenedioic acid, cis-cis-muconic acid, trans-trans muconic acid, trans-cinnamic acid, trans-2-methyl-2-butenoic acid, trans-2-butenoic acid, acrolein, 2-cyclohexen-1-one, and 3-methyl-2-cyclohexenone. […] [Feng, J. et al. Discovery and Characterization of BlsE, a Radical S-Adenosyl-L-methionine Decarboxylase Involved in the Blasticidin S Biosynthetic Pathway. PLoS ONE 8 (2013)].
Kinetic studies of purified EREDBC were performed using 2-hexenedioic acid, 2-cyclohexen-1-one, 3-methyl-2-cyclohexenone, and trans-cinnamic acid as substrates (FIG. 10).
(§3) To increase the dissolved substrate concentration, 2-hexenedioic acid was dissolved in a reaction mixture containing […] (final concentration) isopropanol, and kinetic constants of EREDBC and EREDCA were determined.

[2] = target: T1, Clostridium acetobutylicum DSM 1731 2-enoate reductase EREDCA, SEQ ID NO: 2 (Clostridium acetobutylicum, UniProt Q97DV0); assay: Kinetics of purified EREDCA, NADH oxidation at 340 nm, anaerobic; assay type: biochemical; conditions: 4 to 28 mM
T1 sequence (Q97DV0 1-664): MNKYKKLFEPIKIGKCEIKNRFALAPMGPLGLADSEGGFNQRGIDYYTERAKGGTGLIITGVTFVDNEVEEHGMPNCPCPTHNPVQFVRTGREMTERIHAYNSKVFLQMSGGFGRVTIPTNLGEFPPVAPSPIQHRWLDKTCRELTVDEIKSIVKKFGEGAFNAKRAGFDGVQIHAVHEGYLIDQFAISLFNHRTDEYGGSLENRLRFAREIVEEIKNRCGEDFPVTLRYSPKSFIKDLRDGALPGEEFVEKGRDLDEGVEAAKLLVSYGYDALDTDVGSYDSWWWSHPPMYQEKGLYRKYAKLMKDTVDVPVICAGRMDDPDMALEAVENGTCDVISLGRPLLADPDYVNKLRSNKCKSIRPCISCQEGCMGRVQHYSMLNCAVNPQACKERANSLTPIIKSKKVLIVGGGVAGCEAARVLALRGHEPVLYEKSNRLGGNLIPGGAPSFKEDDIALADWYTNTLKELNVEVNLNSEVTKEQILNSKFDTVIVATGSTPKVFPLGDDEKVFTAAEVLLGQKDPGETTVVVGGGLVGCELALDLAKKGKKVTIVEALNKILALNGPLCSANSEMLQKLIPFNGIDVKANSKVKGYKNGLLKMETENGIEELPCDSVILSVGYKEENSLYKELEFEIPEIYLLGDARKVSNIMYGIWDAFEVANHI
Experimental: as §1, §2, §3

[3] = target: Mycobacterium paratuberculosis carboxylate reductase MAP_1040c, SEQ ID NO: 38 (Mycobacterium avium, UniProt A0ACD7BNV2); assay: CAR kinetics, ATP/NADPH dependent carboxylic acid reduction
Chain of Mycobacterium paratuberculosis carboxylate reductase MAP_1040c, SEQ ID NO: 38 (A0ACD7BNV2 entry or part of it): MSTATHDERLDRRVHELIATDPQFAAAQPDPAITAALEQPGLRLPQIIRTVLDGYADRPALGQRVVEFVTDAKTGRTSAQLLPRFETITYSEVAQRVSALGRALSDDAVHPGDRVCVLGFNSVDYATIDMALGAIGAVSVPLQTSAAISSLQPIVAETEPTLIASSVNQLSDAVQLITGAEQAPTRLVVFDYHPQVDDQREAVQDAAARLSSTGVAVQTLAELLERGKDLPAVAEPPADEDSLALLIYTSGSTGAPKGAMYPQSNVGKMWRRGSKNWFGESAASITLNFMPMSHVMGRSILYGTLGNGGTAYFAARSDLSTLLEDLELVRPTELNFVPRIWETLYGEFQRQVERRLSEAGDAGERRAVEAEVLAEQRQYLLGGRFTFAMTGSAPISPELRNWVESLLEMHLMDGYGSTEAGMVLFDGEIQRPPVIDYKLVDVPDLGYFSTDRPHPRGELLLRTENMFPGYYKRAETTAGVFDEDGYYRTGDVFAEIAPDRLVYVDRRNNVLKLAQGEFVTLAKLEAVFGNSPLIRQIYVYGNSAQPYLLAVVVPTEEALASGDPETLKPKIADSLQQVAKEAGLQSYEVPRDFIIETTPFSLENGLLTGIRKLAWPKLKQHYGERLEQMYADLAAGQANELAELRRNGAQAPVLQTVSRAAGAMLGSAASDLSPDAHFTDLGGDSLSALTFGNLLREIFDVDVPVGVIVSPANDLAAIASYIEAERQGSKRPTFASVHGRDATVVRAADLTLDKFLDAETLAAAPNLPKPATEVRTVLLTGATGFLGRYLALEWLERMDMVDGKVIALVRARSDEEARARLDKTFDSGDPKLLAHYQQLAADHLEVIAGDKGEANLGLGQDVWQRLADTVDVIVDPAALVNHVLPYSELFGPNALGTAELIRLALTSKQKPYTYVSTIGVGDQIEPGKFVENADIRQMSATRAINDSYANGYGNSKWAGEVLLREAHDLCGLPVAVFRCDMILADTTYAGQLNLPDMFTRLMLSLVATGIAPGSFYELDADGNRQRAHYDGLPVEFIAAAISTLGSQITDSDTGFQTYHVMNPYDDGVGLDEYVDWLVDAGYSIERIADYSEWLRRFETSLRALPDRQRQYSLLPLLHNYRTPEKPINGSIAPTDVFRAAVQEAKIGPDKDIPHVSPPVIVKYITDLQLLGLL

[4] = test system: Rhodococcus jostii aldehyde reductase RHA1_ro05279, SEQ ID NO: 47; assay: AR kinetics, aldehyde reduction followed by NAD(P)H oxidation; assay type: biochemical
Description: 28 aldehyde reductases from different bacteria were cloned and overexpressed in E. coli. Enzymes purified using affinity chromatography on Ni-NTA resin were screened for reductase activity with adipaldehyde and butyraldehyde in presence of both NADPH and NADH (Table 5). Butyraldehyde was used as a substrate substitute for 4-oxo-butanal, which is not commercially available. Reactions were followed spectrophotometrically, by cofactor oxidation at 340 nm.
(§4) Enzyme activity of purified ARs was measured spectrophotometrically in 96-well plates Reaction mixtures contained 100 mM HEPES buffer (pH 7.5), 0.4 mM NADH/NADPH, 10 mM adipaldehyde or butylaldehyde, and proteins (10 μg for adipaldehyde screen, 2 μg for butyraldehyde screen) in a final volume of 200 μL Reaction mixture for adipaldehyde screening contained 1.8% DMSO. Enzyme reactions were monitored by following the decrease in absorbance at 340 nm (ε340 nm=6,220/M·cm) due to oxidation of NAD(P)H to NAD(P)+.
ARs RHA1_ro05279, PA1146, SC00229, PP_3370 were characterised for saturation with adipaldehyde, PP_3370, PSPTO_2097, RHA1_ro05279, SC00229, TM_0111, PA1146 were characterised for butyraldehyde saturation (Table 10). […] For both substrates maximal kcat/Km with minimal Km values was shown by AR PP 3370 from Pseudomonas putida.

[5] = target: T2, Mycobacterium smegmatis carboxylate reductase MSMEG_5739, SEQ ID NO: 37 (Mycolicibacterium smegmatis, UniProt A0R484); assay: CAR kinetics, ATP/NADPH dependent carboxylic acid reduction
T2 sequence (A0R484 1-1173): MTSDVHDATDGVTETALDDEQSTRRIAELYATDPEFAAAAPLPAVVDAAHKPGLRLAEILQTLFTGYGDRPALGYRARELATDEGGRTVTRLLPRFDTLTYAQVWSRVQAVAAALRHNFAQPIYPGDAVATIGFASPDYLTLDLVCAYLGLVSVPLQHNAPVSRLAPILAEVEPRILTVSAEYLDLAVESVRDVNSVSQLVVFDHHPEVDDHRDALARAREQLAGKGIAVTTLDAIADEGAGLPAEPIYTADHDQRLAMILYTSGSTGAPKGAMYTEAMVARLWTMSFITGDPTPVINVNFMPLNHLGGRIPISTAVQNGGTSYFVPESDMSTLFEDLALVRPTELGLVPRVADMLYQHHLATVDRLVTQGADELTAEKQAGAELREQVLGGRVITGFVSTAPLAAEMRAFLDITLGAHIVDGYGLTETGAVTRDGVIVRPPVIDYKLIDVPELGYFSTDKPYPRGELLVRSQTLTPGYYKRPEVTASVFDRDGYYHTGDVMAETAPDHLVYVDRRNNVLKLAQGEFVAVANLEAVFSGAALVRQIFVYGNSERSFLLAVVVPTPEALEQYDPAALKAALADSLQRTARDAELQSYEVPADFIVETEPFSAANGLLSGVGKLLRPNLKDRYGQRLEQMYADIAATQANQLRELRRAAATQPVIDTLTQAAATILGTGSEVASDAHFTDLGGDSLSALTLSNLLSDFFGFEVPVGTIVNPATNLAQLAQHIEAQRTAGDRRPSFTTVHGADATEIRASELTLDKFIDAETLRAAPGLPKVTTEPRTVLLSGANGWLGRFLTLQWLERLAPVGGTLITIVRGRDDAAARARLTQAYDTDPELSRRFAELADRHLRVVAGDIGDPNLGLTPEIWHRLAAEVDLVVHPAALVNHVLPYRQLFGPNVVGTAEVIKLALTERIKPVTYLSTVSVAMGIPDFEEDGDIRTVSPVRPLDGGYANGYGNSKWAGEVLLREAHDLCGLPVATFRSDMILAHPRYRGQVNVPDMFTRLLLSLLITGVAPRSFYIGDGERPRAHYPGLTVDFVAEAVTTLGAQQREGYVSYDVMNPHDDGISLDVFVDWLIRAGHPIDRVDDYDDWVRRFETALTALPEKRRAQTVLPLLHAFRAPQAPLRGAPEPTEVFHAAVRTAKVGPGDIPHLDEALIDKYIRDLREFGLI

[6] = target: T3, Mycobacterium smegmatis carboxylate reductase MSMEG_2956, SEQ ID NO: 70 (Mycolicibacterium smegmatis, UniProt A0QWI7); assay: as above
T3 sequence (A0QWI7 1-1168): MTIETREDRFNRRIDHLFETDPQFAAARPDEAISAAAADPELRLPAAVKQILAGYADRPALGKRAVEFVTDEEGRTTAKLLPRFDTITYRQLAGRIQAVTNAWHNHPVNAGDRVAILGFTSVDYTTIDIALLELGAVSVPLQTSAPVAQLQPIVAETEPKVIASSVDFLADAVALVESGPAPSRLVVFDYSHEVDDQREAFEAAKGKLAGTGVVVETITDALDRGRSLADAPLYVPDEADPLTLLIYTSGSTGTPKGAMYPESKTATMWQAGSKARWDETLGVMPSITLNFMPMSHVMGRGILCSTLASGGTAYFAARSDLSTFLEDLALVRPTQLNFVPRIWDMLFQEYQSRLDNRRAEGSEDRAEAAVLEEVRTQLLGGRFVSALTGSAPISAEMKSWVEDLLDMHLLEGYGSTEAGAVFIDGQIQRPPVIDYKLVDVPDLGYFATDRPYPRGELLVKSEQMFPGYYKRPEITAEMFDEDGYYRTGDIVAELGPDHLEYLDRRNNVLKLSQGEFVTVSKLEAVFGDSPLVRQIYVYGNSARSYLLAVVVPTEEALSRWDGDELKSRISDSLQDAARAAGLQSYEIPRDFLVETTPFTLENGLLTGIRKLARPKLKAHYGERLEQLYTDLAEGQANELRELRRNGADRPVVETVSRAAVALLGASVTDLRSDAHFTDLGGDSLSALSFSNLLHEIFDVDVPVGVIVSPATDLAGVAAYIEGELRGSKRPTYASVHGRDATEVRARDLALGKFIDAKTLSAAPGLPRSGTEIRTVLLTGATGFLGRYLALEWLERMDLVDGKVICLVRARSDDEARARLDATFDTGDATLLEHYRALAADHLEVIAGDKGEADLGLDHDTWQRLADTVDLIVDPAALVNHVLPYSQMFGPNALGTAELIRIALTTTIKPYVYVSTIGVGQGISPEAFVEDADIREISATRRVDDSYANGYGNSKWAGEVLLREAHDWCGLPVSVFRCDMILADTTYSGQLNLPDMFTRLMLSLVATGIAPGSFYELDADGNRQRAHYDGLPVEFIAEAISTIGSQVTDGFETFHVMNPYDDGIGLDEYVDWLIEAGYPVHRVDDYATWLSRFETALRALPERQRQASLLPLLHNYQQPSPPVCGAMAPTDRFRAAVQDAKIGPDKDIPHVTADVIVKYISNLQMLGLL

[7] = AR reductase activity, NAD(P)H oxidation at 340 nm; assay type: biochemical; conditions: 10 mM, ND = no activity was detected
Experimental: as §4

[8] = AT activity coupled with alanine and glutamate dehydrogenases; assay type: biochemical; conditions: 10 mM adipaldehyde, alanine and glutamate amino-donors; ND = no activity was detected
[9] = adipaldehyde, cofactor NADH, 1,8% DMSO

Compound: O=C(O)C=CCCC(=O)O (racemic) [2-hexenedioic acid, 2-Hexenedioic acid]
fold higher catalytic efficiency (kcat/Km) of EREDBC compared to EREDCA ([1]; 2-hexenedioic acid in 0.25 mM isopropanol, 2.5 to 35 mM): 14.6 fold | saturation by substrate [1]: no saturation | saturation by substrate [2]: no saturation

Compound: O=C1C=CCCC1 [2-cyclohexen-1-one, 2-Cyclohexen-1-one]
saturation by substrate [1]: no saturation

Compound: CC1=CC(=O)CCC1 [3-methyl-2-cyclohexenone, 3-Methyl-2-cyclohexenone]
saturation by substrate [1]: no saturation

Compound: O=C(O)CCCCCO [6-hydroxyhexanoic acid]
kcat [3]: 2.91 ± 0.19 s⁻¹ | kcat/Km [3]: 41.58 ± 2.77 M⁻¹ s⁻¹

Compound: O=CCCCCC=O [adipaldehyde]
Km [4, 9]: 6.89 ± 1.38 mM | kcat [4, 9]: 3.67 ± 0.31 s⁻¹ | kcat/Km [4, 9]: (5.33 ± 0.45) × ×10^2 M^−1 · s^−1

Compound: O=C(O)CCCCC(=O)O [adipic acid]
Km [5]: 87.5 ± 16.2 mM | kcat [5]: 2.40 ± 0.26 s⁻¹ | kcat [6]: 2.73 ± 0.20 s⁻¹ | kcat/Km [6]: 25.2 ± 1.83 M⁻¹ s⁻¹

Km ([4]; butyraldehyde, cofactor NADH): 14.3 ± 0.88 mM | kcat ([4]; butyraldehyde, cofactor NADH): 25.77 ± 0.88 s⁻¹ | kcat/Km ([4]; butyraldehyde, cofactor NADH): (1.80 ± 0.06) × ×10^3 M^−1 · s^−1 | Km ([4]; butyraldehyde, cofactor NADPH): 1.53 ± 0.39 mM | kcat ([4]; butyraldehyde, cofactor NADPH): 1.28 ± 0.09 s⁻¹ | kcat/Km ([4]; butyraldehyde, cofactor NADPH): (8.37 ± 0.59) × ×10^2 M^−1 · s^−1
Compound: CCCC=O [butyraldehyde]

Compound: RHA1_ro05279: aldehyde reductase (AR) from Rhodococcus jostii
Activity [U/mg protein] Adipaldehyde ([7]; 1.8% DMSO): 0.721 ± 0.026 U/mg protein | Activity [U/mg protein] Butyraldehyde [7]: 0.905 ± 0.834 U/mg protein

Compound: Rsp3534: aminotransferase (AT) from Rhodobacter sphaeroides
Adipaldehyde 10 mM U/mg [8]: 0.034 ± 0.005 U/mg
